Experimental data from US6737383B1, “Herbicidal oxadiazolidines” (priority 1999, dated 2004).

Columns and labels:
[1] = system: sugar beet; experiment: Test B pre/postemergence sugar beet; format: in vivo, Beta vulgaris
Method in brief: (§1)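 Response is a visual 0-to-10 score relative to untreated plants, where 0 means no effect and 10 means complete control, taken twelve to sixteen days after application. Treatments went onto soil at planting and onto foliage of 1- to 4-leaf plants, using a surfactant-containing non-phytotoxic solvent.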

[2] = system: corn; experiment: Test B pre/postemergence corn; format: in vivo, Zea mays
Method in brief: as §1

[3] = system: cocklebur; experiment: Test B pre/postemergence cocklebur; format: in vivo, Xanthium strumarium
Method in brief: as §1

[4] = system: purple nutsedge; experiment: Test B pre/postemergence purple nutsedge; format: in vivo, Cyperus rotundus
Method in brief: as §1

[5] = system: crabgrass; experiment: Test B pre/postemergence crabgrass; format: in vivo, Digitaria sanguinalis
Method in brief: as §1

[6] = system: duck salad; experiment: Test B flood test duck salad; format: in vivo, Heteranthera limosa
Method in brief: (§2)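 Flood test on plants grown to the 2-leaf stage; treated plants kept in greenhouse twelve to sixteen days, then visually rated against controls on a 0 (no effect) to 10 (complete control) scale.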

[7] = system: smallflower flatsedge; experiment: Test B flood test smallflower flatsedge; format: in vivo, Cyperus difformis
Method in brief: as §2

[8] = system: wild oat; experiment: Test B pre/postemergence wild oat; format: in vivo, Avena fatua
Method in brief: as §1

[9] = system: giant foxtail; experiment: Test B pre/postemergence giant foxtail; format: in vivo, Setaria faberii
Method in brief: as §1

[10] = system: soybean; experiment: Test B pre/postemergence soybean; format: in vivo, Glycine max
Method in brief: as §1

[11] = system: velvetleaf; experiment: Test B pre/postemergence velvetleaf; format: in vivo, Abutilon theophrasti
Method in brief: as §1

[12] = system: bamyardgrass; experiment: Test B flood test barnyardgrass; format: in vivo, Echinochloa crus-galli
Method in brief: as §2

[13] = system: wheat; experiment: Test B pre/postemergence wheat; format: in vivo, Triticum aestivum
Method in brief: as §1

[14] = system: surinam grass; experiment: Test B pre/postemergence surinam grass; format: in vivo, Brachiaria decumbens
Method in brief: as §1

[15] = system: rice; experiment: Test B flood test rice; format: in vivo, Oryza sativa
Method in brief: as §2

[16] = system: morningglory; experiment: Test B pre/postemergence morningglory; format: in vivo, Ipomoea hederacea
Method in brief: as §1

[17] = system: blackgrass; experiment: Test B pre/postemergence blackgrass; format: in vivo, Alopecurus myosuroides
Method in brief: as §1

[18] = system: pigweed; experiment: Test B pre/postemergence pigweed; format: in vivo, Amaranthus retroflexus
Method in brief: as §1

[19] = system: rape; experiment: Test B pre/postemergence rape; format: in vivo, Brassica napus
Method in brief: as §1

[20] = system: bedstraw; experiment: Test B pre/postemergence bedstraw; format: in vivo, Galium aparine
Method in brief: as §1

[21] = Preemergence, Rate 62 g/ha, scale of 0 to 10 where 0 is no effect and 10 is complete control
[22] = Preemergence, Rate 250 g/ha, scale of 0 to 10 where 0 is no effect and 10 is complete control
[23] = Preemergence, Rate 500 g/ha, scale of 0 to 10 where 0 is no effect and 10 is complete control
[24] = Rate 125 g/ha, Preemergence, scale of 0 to 10 where 0 is no effect and 10 is complete control
[25] = Rate 500 g/ha, Postemergence, scale 0 to 10, 0 no effect, 10 complete control
[26] = Rate 62 g/ha, Postemergence, scale of 0 to 10 where 0 is no effect and 10 is complete control
[27] = Rate 125 g/ha, Postemergence, scale 0 to 10
[28] = Rate 62 g/ha, headed Pre-emergence (flood test species), scale 0 to 10 (0 no effect, 10 complete control)
[29] = Rate 125 g/ha, Pre-emergence, flood test species, scale 0 to 10 where 0 is no effect and 10 is complete control
[30] = Rate 250 g/ha, Pre-emergence, flood-test species, scale 0 to 10, 0 is no effect, 10 is complete control
[31] = Rate 500 g/ha, Pre-emergence, flood test species, scale 0 to 10 (0 no effect, 10 complete control)

Compound: CC(C)N(C(=O)n1oc(=O)n(CC(=O)OC(C)(C)C)c1=O)c1ccc(F)cc1 [Compound 265]
- Sugarbeets plant response rating [1, 21]: 0
- Sugarbeets plant response rating [1, 22]: 0
- Plant response rating, Sugarbeets [1, 23]: 0
- Sugarbeets plant response rating [1, 24]: 0
- Sugarbeets plant response rating [1, 25]: 3
- Corn plant response rating [2, 21]: 0
- Corn plant response rating [2, 22]: 0
- Plant response rating, Corn [2, 23]: 0
- Corn plant response rating [2, 26]: 0
- Corn plant response rating [2, 27]: 0
- Corn plant response rating [2, 24]: 0
- Plant response rating (0 to 10; 0 is no effect, 10 is complete control), Corn ([2]; Rate 250 g/ha, Postemergence): 0
- Corn plant response rating [2, 25]: 0
- Cocklebur plant response rating [3, 21]: 0
- Cocklebur plant response rating [3, 22]: 0
- Cocklebur plant response rating [3, 26]: 0
- Cocklebur plant response rating [3, 27]: 0
- Cocklebur plant response rating [3, 24]: 0
- Plant response rating (0 to 10; 0 is no effect, 10 is complete control), Cocklebur ([3]; Rate 250 g/ha, Postemergence): 0
- Cocklebur plant response rating [3, 25]: 0
- Nutsedge plant response rating [4, 21]: 0
- Nutsedge plant response rating [4, 22]: 0
- Plant response rating, Nutsedge [4, 23]: 0
- Plant response rating (0 to 10; 0 is no effect, 10 is complete control), Nutsedge ([4]; Rate 250 g/ha, Postemergence): 0
- Nutsedge plant response rating [4, 25]: 0
- Crabgrass plant response rating [5, 21]: 1
- Crabgrass plant response rating [5, 22]: 2
- Plant response rating, Crabgrass [5, 23]: 6
- Crabgrass plant response rating [5, 24]: 2
- Plant response rating (0 to 10; 0 is no effect, 10 is complete control), Crabgrass ([5]; Rate 250 g/ha, Postemergence): 2
- Crabgrass plant response rating [5, 25]: 3
- Ducksalad plant response rating [6, 28]: 0
- Ducksalad plant response rating [6, 29]: 0
- Ducksalad plant response rating [6, 30]: 0
- Ducksalad plant response rating [6, 31]: 0
- S. Flatsedge plant response rating [7, 28]: 0
- S. Flatsedge plant response rating [7, 29]: 0
- S. Flatsedge plant response rating [7, 30]: 0
- S. Flatsedge plant response rating [7, 31]: 0
- Wild oats plant response rating [8, 21]: 0
- Wild oats plant response rating [8, 22]: 2
- Plant response rating, Wild oats [8, 23]: 5
- Wild oats plant response rating [8, 24]: 0
- Wild oats plant response rating [8, 25]: 0
- Giant foxtail plant response rating [9, 21]: 6
- Giant foxtail plant response rating [9, 22]: 8
- Plant response rating, Giant foxtail [9, 23]: 10
- Giant foxtail plant response rating [9, 24]: 8
- Plant response rating (0 to 10; 0 is no effect, 10 is complete control), Giant foxtail ([9]; Rate 250 g/ha, Postemergence): 2
- Giant foxtail plant response rating [9, 25]: 2
- Soybean plant response rating [10, 21]: 0
- Soybean plant response rating [10, 22]: 0
- Plant response rating, Soybean [10, 23]: 0
- Soybean plant response rating [10, 24]: 0
- Soybean plant response rating [10, 25]: 4
- Velvetleaf plant response rating [11, 21]: 0
- Velvetleaf plant response rating [11, 22]: 0
- Plant response rating, Velvetleaf [11, 23]: 0
- Velvetleaf plant response rating [11, 24]: 0
- Velvetleaf plant response rating [11, 25]: 3
- Barnyardgrass plant response rating [12, 28]: 0
- Barnyardgrass plant response rating [12, 29]: 0
- Barnyardgrass plant response rating [12, 30]: 0
- Barnyardgrass plant response rating [12, 31]: 0
- Wheat plant response rating [13, 21]: 0
- Wheat plant response rating [13, 22]: 0
- Plant response rating, Wheat [13, 23]: 1
- Wheat plant response rating [13, 24]: 0
- Wheat plant response rating [13, 25]: 0
- B. signalgrass plant response rating [14, 21]: 0
- B. signalgrass plant response rating [14, 22]: 0
- Plant response rating, B. signalgrass [14, 23]: 4
- B. signalgrass plant response rating [14, 26]: 0
- B. signalgrass plant response rating ([14]; Rate 125 g/ha, Postemergence, scale 0 (no effect) to 10 (complete control)): 0
- B. signalgrass plant response rating [14, 24]: 0
- Plant response rating (0 to 10; 0 is no effect, 10 is complete control), B. signalgrass ([14]; Rate 250 g/ha, Postemergence): 0
- B. signalgrass plant response rating [14, 25]: 0
- Rice plant response rating [15, 28]: 0
- Rice plant response rating [15, 29]: 0
- Rice plant response rating [15, 30]: 0
- Rice plant response rating [15, 31]: 0
- Morningglory plant response rating [16, 21]: 0
- Morningglory plant response rating [16, 22]: 0
- Plant response rating, Morningglory [16, 23]: 0
- Morningglory plant response rating [16, 24]: 0
- Plant response rating (0 to 10; 0 is no effect, 10 is complete control), Morningglory ([16]; Rate 250 g/ha, Postemergence): 6
- Morningglory plant response rating [16, 25]: 8
- Blackgrass plant response rating [17, 21]: 0
- Blackgrass plant response rating [17, 22]: 0
- Blackgrass plant response rating [17, 26]: 4
- Blackgrass plant response rating [17, 27]: 4
- Plant response rating (0 to 10; 0 is no effect, 10 is complete control), Blackgrass ([17]; Rate 250 g/ha, Postemergence): 5
- Blackgrass plant response rating [17, 25]: 7
- Redroot pigweed plant response rating [18, 21]: 0
- Redroot pigweed plant response rating [18, 22]: 0
- Plant response rating, Redroot pigweed [18, 23]: 0
- Redroot pigweed plant response rating [18, 24]: 0
- Plant response rating (0 to 10; 0 is no effect, 10 is complete control), Redroot pigweed ([18]; Rate 250 g/ha, Postemergence): 3
- Redroot pigweed plant response rating [18, 25]: 4
- Rape plant response rating [19, 21]: 0
- Rape plant response rating [19, 22]: 0
- Plant response rating, Rape [19, 23]: 0
- Rape plant response rating [19, 24]: 0
- Plant response rating (0 to 10; 0 is no effect, 10 is complete control), Rape ([19]; Rate 250 g/ha, Postemergence): 1
- Rape plant response rating [19, 25]: 3
- Bedstraw plant response rating [20, 21]: 0
- Bedstraw plant response rating [20, 22]: 0
- Plant response rating, Bedstraw [20, 23]: 0
- Bedstraw plant response rating [20, 26]: 0
- Bedstraw plant response rating [20, 27]: 2
- Bedstraw plant response rating [20, 24]: 0
- Plant response rating (0 to 10; 0 is no effect, 10 is complete control), Bedstraw ([20]; Rate 250 g/ha, Postemergence): 3
- Bedstraw plant response rating [20, 25]: 8
